Source: PubChem BioAssay AID489022 (Sanford-Burnham Center for Chemical Genomics, 2010)
pIC50: −log10 of the molar value. Activity calls are given as the source filed them. No rule for the calls is given here.

system: HEK-293T NF-kB luciferase reporter, luminescence counterscreen; test: inhibitors of NF-kB luciferase reporter, HEK-293T, dose response, counter-screen for BCR NF-kB inhibitor project, luminescence, B-cell screen hits (AID 489022)

Row | SMILES | IC50 | pIC50
1 | Cc1ccc(C(=O)CSc2nnc(COc3cccc(C)c3)o2)cc1 | 21.6 µM (inactive) | –
2 | CCSc1ncc(Cl)c(C(=O)Nc2sc3c(c2C(=O)NCc2cccnc2)CCCC3)n1 | > 80 µM (inactive) | –
3 | CCCC(=O)Nc1ccc(Sc2ccc([N+](=O)[O-])cc2)cc1 | – | 5.08
4 | C/C(=N\Nc1nc(Nc2ccccc2)nc(N2CCOCC2)n1)c1cccs1 | > 80 µM (inactive) | –
5 | Cn1c(=O)n(C)c2cc(NC(=O)CSc3nnc(-c4ccccc4O)n3-c3ccccc3)ccc21 | – | 4.74
6 | Cc1cnc(NC(=O)Nc2ccc(Cl)cc2)s1 | > 80 µM (inactive) | –
7 | CCOc1ccc(-n2c(-c3ccccc3)c[n+]3c2CCCCC3)cc1 | – | 5.85
8 | Cc1cc(OC(=O)c2ccccc2Cl)cc(=O)n1C | > 80 µM (inactive) | –
9 | COc1ccc(-c2ccc(OC)c([C@H]3[C@H]4C=CC[C@@H](C)[C@@H]4C(=O)N3Cc3ccccc3)c2)cc1C | > 80 µM (inactive) | –
10 | Cc1ccc(/C=C2\SC(=S)N(CCC(=O)NNC(=O)c3ccncc3)C2=O)cc1 | > 80 µM (inactive) | –
11 | CCCCCCn1c(-c2ccco2)nc2oc3cc(OC)ccc3c(=O)c2c1=O | > 80 µM (inactive) | –
12 | COc1ccc(OCc2cccc(C(=O)NN)c2)cc1 | – | 4.76
13 | COC(=O)[C@@H]1Cc2c([nH]c3ccccc23)C(C)(C)N1C(=O)CCl | 36 µM (inactive) | –
14 | COCCCNC(=O)COc1ccc(-c2nccc(-c3ccccn3)n2)cc1 | 48.1 µM (inactive) | –
15 | CCOC(=O)/C=C(\C)Sc1cc(=O)oc2ccccc12 | – | 4.98
16 | Cc1ccc(-c2nn3c(C)nnc3c3ccccc23)cc1S(=O)(=O)NCc1ccco1 | – | 4.81
17 | Cc1cc(C)c(S(=O)(=O)NCc2ccncc2)c(C)c1 | – | 6.01
18 | CC1=CC(C)(C)Nc2ccc(OC(=O)C(C)N3C(=O)c4ccccc4C3=O)cc21 (stereo unspecified) | – | 4.94
19 | CN(C)c1cc[n+](Cc2c(Cl)cccc2Cl)cc1 | – | 5.01
20 | COc1ccc(C(=O)Nc2cccc(NC(=O)c3ccc(OC)c(OC)c3)n2)cc1OC | – | 4.81
21 | CC(C)CN(C(=O)COC(=O)C12CC3CC(CC(C3)C1)C2)c1c(N)n(Cc2ccccc2)c(=O)[nH]c1=O | – | 4.97
22 | CCCNC(=O)CSCc1nc(-c2ccc(SC)cc2)oc1C | 38.5 µM (inactive) | –
23 | Cc1ccc(/C=C2\SC(=S)N(CCCC(=O)Nc3ccc(O)cc3)C2=O)cc1 | > 80 µM (inactive) | –
24 | Cn1c(=O)cc(OCCCC(=O)NC2CCCC2)c2ccccc21 | 46 µM (inactive) | –
25 | C=CCOc1ccc(NC(=O)C(=O)NCCCn2ccnc2)cc1 | > 80 µM (inactive) | –
26 | COc1ccc(NS(=O)(=O)c2cc(NC(=O)c3cc(=O)c4ccccc4o3)ccc2OC)cc1 | > 80 µM (inactive) | –

Row | SMILES | IC50 | pIC50
27 | CCn1c(=S)[nH]c2cc(S(=O)(=O)N3CCCCC3)ccc21 | 33.9 µM (inactive) | –
28 | NC(=S)N=Nc1c(O)n(Cc2ccccc2)c2ccccc12 | > 80 µM (inactive) | –
29 | CCOC(=O)C1CCN(c2ncnc3c2cnn3-c2ccc(Cl)cc2)CC1 | – | 5.90
30 | CCc1ccc(-c2nnn(CCC(=O)OC)n2)cc1 | – | 6.22
31 | Cc1ccc(-c2cc(C(=O)NCCCN3CCOCC3)no2)cc1 | > 80 µM (inactive) | –
32 | CC1=CC(C)(C)Nc2ccc(OC(=O)C(Cc3ccccc3)N3C(=O)c4ccccc4C3=O)cc21 (stereo unspecified) | > 80 µM (inactive) | –
33 | COc1cc(OC)cc(-c2cc3nc(C)c(CCC(=O)Nc4nc(C)cs4)c(C)n3n2)c1 | > 80 µM (inactive) | –
34 | Cc1cc(OCC(=O)Nc2ccc(CCO)cc2)c2c(C)c(C)c(=O)oc2c1 | > 80 µM (inactive) | –
35 | CC(C)(C)c1ccc(-c2noc(CCC(=O)NCC3CCCO3)n2)cc1 (stereo unspecified) | – | 5.91
36 | CCOc1ccc(-c2noc(CCC(=O)O)n2)cc1 | – | 5.05
37 | CCn1c(=O)cc(SCC(=O)N2CCN(C)CC2)c2ccccc21 | > 80 µM (inactive) | –
38 | Cc1ccc(-c2nsc3c(N4CCC(C(N)=O)CC4)ncnc23)cc1 | > 80 µM (inactive) | –
39 | CC(C)Oc1ccc(C(=O)Nc2ccc(N(C)C)cc2)cc1 | > 80 µM (inactive) | –
40 | O=C(N/N=C/c1ccc(Cl)cc1Cl)c1ccc(-n2cnnn2)cc1 | > 80 µM (inactive) | –
41 | COc1cccc(N2CCN(c3ncnc4c3[nH]c3ccc(F)cc34)CC2C)c1 (stereo unspecified) | – | 6.18
42 | C#CCN(Cc1ccccc1)S(=O)(=O)C=C | 51.3 µM (inactive) | –
43 | Cc1cccn2c(=O)c3cc(C(=O)NC4CCCCC4)c(=N)n(CCN4CCOCC4)c3nc12 | > 80 µM (inactive) | –
44 | Cc1ccc(/C=C2\SC(=S)N(CCCC(=O)NC3CCCC3)C2=O)cc1 | > 80 µM (inactive) | –
45 | CC(C)(C)c1ccc(-c2cc(N)n[nH]2)cc1 | > 80 µM (inactive) | –
46 | O=C(CCCN1C(=O)S/C(=C\C=C\c2ccccc2)C1=O)Nc1ccc(O)cc1 | > 80 µM (inactive) | –
47 | CCn1c(=O)cc(SCC(=O)N2CCC3(CC2)OCCO3)c2ccccc21 | > 80 µM (inactive) | –
48 | CN(C)C(=O)CCc1nc(-c2ccc(C(C)(C)C)cc2)no1 | 51.8 µM (inactive) | –
49 | COc1ccc(NC(=O)c2nnn(Cc3cccc(F)c3)c2N)c(OC)c1 | > 80 µM (inactive) | –
50 | Cn1c(=O)cc(OCC(=O)N2CCC3(CC2)OCCO3)c2ccccc21 | > 80 µM (inactive) | –
51 | CC(C)N1C(=O)S/C(=C/c2ccc3c(c2)n(C)c(=O)n3C)C1=O | > 80 µM (inactive) | –
52 | CCc1ccc(/C=C2\SC(=S)N(CCC(=O)Nc3cc(C)on3)C2=O)cc1 | > 80 µM (inactive) | –

Row | SMILES | IC50 | pIC50
53 | COc1ccc(OC)c(NC(=O)c2[nH]c(C)c(C(C)=O)c2C)c1 | > 80 µM (inactive) | –
54 | CC1=CC(C)(C)Nc2ccc(OC(=O)c3ccco3)cc21 | – | 4.79
55 | Cn1nnnc1Sc1ncnc2scc(Br)c12 | – | 5.37
56 | O=C(Nc1nc2nc(-c3ccccc3)cc(-c3ccccc3)n2n1)c1ccco1 | 23.5 µM (inactive) | –
57 | Cc1nn(C(C)(C)C)c(OC(=O)c2ccc(Br)o2)c1Sc1ccccc1 | 53.8 µM (inactive) | –
58 | Cc1c(CC(=O)NCCCC(=O)O)c(=O)oc2cc3c(cc12)CCC(C)(C)O3 | – | 5.47
59 | Cc1nc2cc(-c3cccc(F)c3)nn2c(C)c1CCC(=O)NC(C)CCc1ccco1 (stereo unspecified) | – | 4.94
60 | COc1cc(-c2nc3n(n2)C(c2ccc(F)cc2)C2=C(CCCC2=O)N3)cc(OC)c1OC (stereo unspecified) | 30.4 µM (inactive) | –
61 | Cn1c(=NC(=O)CCl)sc2ccccc21 | 21.6 µM (inactive) | –
62 | CC(C)(C)c1ccc(-c2noc(CCC(=O)NCc3ccco3)n2)cc1 | – | 6.31
63 | Cc1ccc(C(=O)C[n+]2cc(-c3ccc(C)cc3)n3c2CCCCC3)cc1 | – | 5.35
64 | C/C=C(/C)C(=O)OC1Cc2c(ccc3ccc(=O)oc23)OC1(C)C (stereo unspecified) | 23.5 µM (inactive) | –
65 | C(=N\Nc1nc(Nc2ccccc2)nc(Nc2ccccc2)n1)/c1cccnc1 | > 80 µM (inactive) | –
66 | CCc1ccc2nc(Nc3nc(COC)cc(=O)[nH]3)nc(C)c2c1 | 46.4 µM (inactive) | –
67 | Cc1c(CCC(=O)O)c(=O)oc2cc3oc4c(c3cc12)CCCC4 | – | 5.23
68 | Cc1cc(C)cc(N2C(=O)NC(=O)/C(=C\c3cccn3-c3ccccc3)C2=O)c1 | > 80 µM (inactive) | –
69 | Cc1csc(NC(=O)CCc2c(C)nc3cc(-c4ccc(Cl)cc4)nn3c2C)n1 | – | 4.99
70 | CCC(C)N1C(=O)/C(=C/c2c(NCCCOC(C)C)nc3c(C)cccn3c2=O)SC1=S (stereo unspecified) | > 80 µM (inactive) | –
71 | COc1cc(OC)c(/C=N/NC(N)=S)cc1Br | > 80 µM (inactive) | –
72 | Cc1ccc(S(=O)(=O)N2CCCCC2CCNC(=O)C(=O)NCc2ccncc2)cc1 (stereo unspecified) | 38.4 µM (inactive) | –
73 | CCc1ccc(/C=C2/SC(=S)N(CCC(=O)Nc3cccnc3)C2=O)cc1 | > 80 µM (inactive) | –
74 | COc1ccc(-c2noc(N3CCC(C(=O)Nc4cccc(OC)c4)CC3)n2)cc1 | – | 4.75
75 | O=C(NNC(=O)C12CC3CC(CC(Br)(C3)C1)C2)c1ccccc1F | > 80 µM (inactive) | –
76 | CCCS(=O)(=O)Nc1cccc(-c2ccc3nnc(C)n3n2)c1 | > 80 µM (inactive) | –
77 | O=C(CCl)N1CCN(S(=O)(=O)c2ccc3c(c2)CCC3)CC1 | 41.9 µM (inactive) | –
78 | O=C(Oc1cccc(/C=N/Nc2nc(N3CCOCC3)nc(N3CCOCC3)n2)c1)c1ccco1 | > 80 µM (inactive) | –

Row | SMILES | IC50 | pIC50
79 | Cc1cc(=O)[nH]c2c(C)cc(S(=O)(=O)N3CCCCC3)cc12 | > 80 µM (inactive) | –
80 | CCn1c(=O)cc(OCC(=O)NCc2ccc(C)o2)c2ccccc21 | > 80 µM (inactive) | –
81 | O=C(O)COc1ccc(-c2nccc(-c3ccccn3)n2)cc1 | – | 4.88
82 | Cc1cc2ccccn2c1C(=O)c1ccc(NN)c([N+](=O)[O-])c1 | 30.5 µM (inactive) | –
83 | COc1cccc(/C=C2\SC(=S)N(CCCC(=O)NC3=NCCS3)C2=O)c1 | 69.1 µM (inactive) | –
84 | Cn1cnc([N+](=O)[O-])c1Sc1ccc([N+](=O)[O-])cc1 | > 80 µM (inactive) | –
85 | CCOc1ccc(/C=C2\SC(=S)N(CCC(=O)Nc3cccc(C(=O)O)c3)C2=O)cc1 | > 80 µM (inactive) | –
86 | CC(=O)c1cn(CCOc2cc(C)ccc2C)c2ccccc12 | – | 6.54
87 | Cc1cc(OCC(=O)NC2CC2)c2c(C)c(C)c(=O)oc2c1 | > 80 µM (inactive) | –
88 | CC(=O)c1cccc(S(=O)(=O)Nc2cc(C(F)(F)F)ccc2N2CCOCC2)c1 | > 80 µM (inactive) | –
89 | c1ccc(CCNc2ncnc3ccccc23)cc1 | – | 6.35
90 | Cc1cc(C)cc(OCc2nnc(SCC(=O)c3ccccc3)o2)c1 | 23.7 µM (inactive) | –
91 | Cc1ccc(Nc2nc(N/N=C\c3ccc4c(c3)OCO4)nc(N3CCOCC3)n2)cc1 | > 80 µM (inactive) | –
92 | COc1ccc(C(=O)N/N=C/c2ccc(OC)c(CN3CCCc4ccccc43)c2)cc1 | > 80 µM (inactive) | –
93 | O=C(CSCCO)Nc1ccc(C23CC4CC(CC(C4)C2)C3)cc1 | – | 5.41
94 | CN(C)S(=O)(=O)c1ccc(NC(=O)N2CCN(c3ccccc3)CC2)cc1 | > 80 µM (inactive) | –
95 | COc1ccc(OCc2cccc(C(=O)Nc3cc(C)on3)c2)cc1 | 50.6 µM (inactive) | –
96 | COc1ccc(-n2nnnc2S(=O)(=O)CC(=O)N2CCCCC2)cc1 | – | 4.77
97 | CCn1c(=O)cc(SCC(=O)N2CCC(C)CC2)c2ccccc21 | 70.9 µM (inactive) | –
98 | COc1ccc(/C=C2\SC(=S)N(CCC(=O)Nc3ccc(O)cc3)C2=O)cc1 | > 80 µM (inactive) | –
99 | Cc1ccc(/C=C2\SC(=S)N(CCCC(=O)Nc3cccnc3)C2=O)cc1 | 51.8 µM (inactive) | –
100 | Cc1cc(N(C)C)ccc1N=Nc1ccc(N)cc1 | 64.3 µM (inactive) | –
101 | Fc1ccc(C2=Nn3c(nnc3-c3n[nH]c4c3CCC4)SC2)cc1 | – | 4.78
